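Each compound was tested at five concentrations against cells in 96-well plates for 48 hours. GI50 is the concentration that inhibits growth by half. At the TGI there is no net growth.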
Legend:
Test in all cases: NCI-60 cell line screen, 48 h
HCT-116 colon = system: HCT-116 colon
HL-60(TB) leukemia = system: HL-60(TB) leukemia
HOP-62 NSCLC = system: HOP-62 NSCLC
MDA-MB-231 breast = system: MDA-MB-231 breast
MDA-N = system: MDA-N
NCI-H23 lung = system: NCI-H23 lung
NCI-H522 lung = system: NCI-H522 lung
NCI/ADR-RES ovarian = system: NCI/ADR-RES ovarian
OVCAR-3 ovarian = system: OVCAR-3 ovarian
SF-268 CNS = system: SF-268 CNS
SR leukemia = system: SR leukemia
SW-620 colon = system: SW-620 colon

Structure (SMILES) | TGI (HCT-116 colon) | TGI (HL-60(TB) leukemia) | TGI (HOP-62 NSCLC) | TGI (MDA-MB-231 breast) | TGI (MDA-N) | TGI (NCI-H23 lung) | TGI (NCI-H522 lung) | TGI (NCI/ADR-RES ovarian) | TGI (OVCAR-3 ovarian) | TGI (SF-268 CNS) | TGI (SR leukemia) | TGI (SW-620 colon) | GI50 (HCT-116 colon) | GI50 (HL-60(TB) leukemia) | GI50 (HOP-62 NSCLC) | GI50 (MDA-N) | GI50 (NCI-H23 lung) | GI50 (SF-268 CNS) | GI50 (SW-620 colon)
CC1=C(C(=O)OC(C)C)C(c2ccccc2C(F)(F)F)C(C(=O)OC(CO[N+](=O)[O-])CO[N+](=O)[O-])=C(C)N1 (stereo not given) | 16.6 µM | > 100 µM | 29.5 µM | 28.2 µM | 21.9 µM | > 100 µM | 14.2 µM | 30.6 µM | 28.3 µM | 38.7 µM | > 100 µM | 23.3 µM | – | – | – | – | – | – | –
Cc1c(C)c(S(=O)(=O)N(CCCCCON)OCCCN)c(C)c2c1OC(C)(C)CC2 | > 100 µM | 17.3 µM | 31.8 µM | 30.4 µM | 27.3 µM | 29.6 µM | 31.6 µM | 31 µM | 28.7 µM | 30.5 µM | > 21.7 µM | 33.2 µM | – | – | – | – | – | – | –
Nc1nc(N)c2nc(CNc3ccc(C(=O)NC(CCCCNC(=O)c4ccccc4C(=O)O)C(=O)O)cc3)cnc2n1 (stereo not given) | > 100 µM | > 100 µM | > 100 µM | > 100 µM | > 100 µM | > 100 µM | > 100 µM | > 100 µM | > 100 µM | > 100 µM | > 100 µM | > 100 µM | 0.000622 µM | 0.00244 µM | 0.0305 µM | 0.00464 µM | 0.00915 µM | 0.00841 µM | 0.00342 µM
O=C(/C=C(\O)c1ccccc1)c1cc(-c2ccccc2)n(-c2ccccc2)n1 | > 100 µM | > 100 µM | 23.9 µM | 64.4 µM | > 100 µM | > 100 µM | 42.4 µM | > 100 µM | > 100 µM | > 100 µM | 5.2 µM | > 100 µM | – | – | – | – | – | – | –
C=CCn1c(-c2ccc(-c3cs/c(=N\N=O)n3CC=C)cc2)cs/c1=N\N=O | > 100 µM | > 100 µM | > 100 µM | 69.3 µM | > 100 µM | > 100 µM | > 100 µM | > 100 µM | > 100 µM | > 100 µM | > 100 µM | > 100 µM | – | – | – | – | – | – | –
NC(=O)c1cccc([C@@H]2O[C@H](CO)[C@@H](O)[C@H]2O)c1 | 34.6 µM | 10.2 µM | 28 µM | > 100 µM | > 100 µM | 35.4 µM | 10.2 µM | 16.3 µM | 67.2 µM | 26.6 µM | > 82.2 µM | 42.8 µM | – | – | – | – | – | – | –
C[C@]12CC[C@H](O)CC1=CC[C@@H]1C2CC[C@]2(C)Nc3c(cnn3-c3ccc(F)cc3)CC12 (stereo not given in full) | > 100 µM | > 100 µM | 61.1 µM | > 100 µM | > 100 µM | > 100 µM | > 100 µM | > 100 µM | > 100 µM | > 100 µM | > 100 µM | > 100 µM | – | – | – | – | – | – | –
CC1(C)[C@H]2Cc3cc(-c4cc5c(cn4)[C@@H]4C[C@H]([C@@H]5[C@@H]5c6cc(-c7cc8c(cn7)[C@@H]7C[C@H](C8)C7(C)C)ncc6[C@@H]6C[C@H]5C6(C)C)C4(C)C)ncc3[C@@H]1C2 | > 100 µM | > 100 µM | > 100 µM | > 100 µM | > 100 µM | > 100 µM | > 100 µM | > 100 µM | > 100 µM | > 100 µM | > 100 µM | > 100 µM | – | – | – | – | – | – | –
O=C1c2ccccc2C(=O)c2oc(Br)cc21 | 2.7 µM | 1.17 µM | 4.05 µM | 7.32 µM | 0.267 µM | 0.463 µM | 3.04 µM | 5.44 µM | 5.67 µM | 4.22 µM | 5.78 µM | 1.09 µM | – | – | – | – | – | – | –
CC[C@@H]1/C=C/C=C/C[C@H](C)[C@@H](O)[C@](C)(O)C(=O)[C@H](C)[C@@H](O)[C@H](C)C(=O)[C@H](C)[C@@H](O)[C@H](C)/C=C/C(=O)O[C@H]2[C@@H](C)[C@@H](CC1)O[C@@]1(CC[C@@H](C)[C@@H](CC(C)O)O1)[C@@H]2C (stereo not given in full) | 3.11 µM | 4.25 µM | 5.47 µM | 6.65 µM | 6.72 µM | 7.94 µM | 3.89 µM | 5.48 µM | 3.95 µM | 12.7 µM | 13 µM | > 42 µM | – | – | – | – | – | – | –
COP(=O)(OC)/C(=C\c1cn(C(c2ccccc2)(c2ccccc2)c2ccccc2)cn1)NC(C)=O | > 100 µM | > 100 µM | > 100 µM | > 100 µM | > 100 µM | > 100 µM | > 100 µM | > 100 µM | > 100 µM | > 100 µM | > 100 µM | > 100 µM | – | – | – | – | – | – | –
CN(C)CC1CN=C(NC(=O)Nc2ccccc2)O1 (stereo not given) | > 100 µM | > 100 µM | > 100 µM | > 100 µM | > 100 µM | > 100 µM | > 100 µM | > 100 µM | – | > 100 µM | > 100 µM | > 100 µM | – | – | – | – | – | – | –
CC(C)C(NCc1c(O)ccc2c(-c3ccccc3)cc(=O)oc12)C(=O)O (stereo not given) | > 100 µM | > 100 µM | > 100 µM | > 100 µM | > 100 µM | > 100 µM | > 100 µM | > 100 µM | > 100 µM | > 100 µM | > 100 µM | > 100 µM | – | – | – | – | – | – | –
COc1cc(C(=O)Oc2c(C#N)sc3c2c(=O)n(-c2ccccc2)c(=S)n3-c2ccccc2)cc(OC)c1OC | 35.5 µM | 41.3 µM | 48.3 µM | 77.9 µM | > 100 µM | 38.9 µM | 2.11 µM | 41.3 µM | > 100 µM | 84.2 µM | > 100 µM | 68 µM | – | – | – | – | – | – | –
COc1ccc(NC2CC(C)N(C(=O)c3ccccc3)O2)cc1 (stereo not given) | > 10 µM | > 10 µM | > 10 µM | > 10 µM | > 10 µM | > 10 µM | > 10 µM | > 10 µM | > 10 µM | > 10 µM | > 10 µM | > 10 µM | – | – | – | – | – | – | –
O=c1oc2ccc([N+](=O)[O-])cc2c(Nc2ccc3c(c2)S(=O)(=O)c2ccccc2O3)c1[N+](=O)[O-] | > 100 µM | > 100 µM | > 100 µM | > 100 µM | > 100 µM | > 100 µM | > 100 µM | > 100 µM | > 100 µM | > 100 µM | > 100 µM | > 100 µM | – | – | – | – | – | – | –
S=C1N=C(Cl)/C(=C\c2ccccc2)N1 | > 100 µM | > 100 µM | > 100 µM | > 100 µM | > 100 µM | > 100 µM | > 100 µM | > 100 µM | > 100 µM | > 100 µM | > 100 µM | > 100 µM | – | – | – | – | – | – | –
